The target in one assay is T1, central CCK-B receptor (Cavia porcellus, UniProt H0VZC5).
T1 construct: Cerebral cortices of male white guinea-pigs were thus used; from tissue; host or cells: cerebral cortex membranes of male white guinea-pigs
T1 sequence (H0VZC5 1-426): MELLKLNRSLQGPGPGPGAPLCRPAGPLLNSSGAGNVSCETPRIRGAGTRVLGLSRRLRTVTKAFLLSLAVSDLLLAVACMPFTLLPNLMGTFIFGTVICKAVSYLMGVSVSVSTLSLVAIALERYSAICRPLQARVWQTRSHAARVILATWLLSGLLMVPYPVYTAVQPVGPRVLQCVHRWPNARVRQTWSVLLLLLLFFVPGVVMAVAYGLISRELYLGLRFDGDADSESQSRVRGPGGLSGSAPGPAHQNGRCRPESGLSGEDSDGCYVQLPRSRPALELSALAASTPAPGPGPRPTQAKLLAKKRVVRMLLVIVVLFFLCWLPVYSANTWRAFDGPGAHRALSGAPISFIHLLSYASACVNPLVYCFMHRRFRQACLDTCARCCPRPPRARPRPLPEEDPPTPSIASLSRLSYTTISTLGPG
As to the kind of experiment: Inhibition of the binding of [3-H][N-methyl-N-leucine]CCK-8 to guinea-pig cortical membranes. The following applies: guinea-pig cortical membranes; for pIC50: 150 minutes at 25° C. The procedure:
The ability of the compounds of the invention to interact with the central CCK-B receptor was evaluated with the use of non-sulphated [3-H] […] 225 (3) (1990), 1278-1286].
Cerebral cortices of male white guinea-pigs were thus used, according to the method mentioned above, so as to obtain a membrane content corresponding to about 300 mcg of proteins/ml. The membranes were incubated together with the radioactive tracer and the compounds under test for 150 minutes at 25° C. After the supernatant had been discarded, the radioactivity associated with the pellet was determined with a liquid scintillator. The specific binding was determined as the difference between the binding in the absence and in the presence of 5.10^-6 M CCK-8.

Assay [1] addresses T2, gastrin receptors or type-B cholecystokinin (CCK-B) receptors (Oryctolagus cuniculus, UniProt P46627).
T2 construct: Rabbit gastric mucous-membrane cells were prepared by conventional techniques; endogenous in cells; host or cells: freshly isolated rabbit gastric mucosal cells, enriched by elutriation to about 70% parietal cells
T2 sequence (P46627 1-452): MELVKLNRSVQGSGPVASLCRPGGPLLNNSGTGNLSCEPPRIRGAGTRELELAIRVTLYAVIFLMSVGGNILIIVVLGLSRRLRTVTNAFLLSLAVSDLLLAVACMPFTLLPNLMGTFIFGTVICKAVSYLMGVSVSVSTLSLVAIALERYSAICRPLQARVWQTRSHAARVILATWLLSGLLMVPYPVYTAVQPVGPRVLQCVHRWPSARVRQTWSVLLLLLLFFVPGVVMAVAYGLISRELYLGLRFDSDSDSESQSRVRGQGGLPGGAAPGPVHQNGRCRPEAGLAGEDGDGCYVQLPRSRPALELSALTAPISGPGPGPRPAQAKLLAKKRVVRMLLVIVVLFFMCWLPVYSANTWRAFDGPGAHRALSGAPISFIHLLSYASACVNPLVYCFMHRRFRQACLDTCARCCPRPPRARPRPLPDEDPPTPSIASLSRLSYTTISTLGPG
The assay can be described thus: Inhibition of the gastrin-induced increase of cytosolic calcium in rabbit gastric mucous-membrane cells (Fura 2). The class given is cell-based. To be noted: for Ratio IC50 Binding cortex / IC50 (gastric mucous cells): binding values taken from Table 3; for IC50, inhibition of the increase of cytosolic calcium: rabbit gastric mucous cells enriched in parietal cells, gastrin 5×10^-8. The source says:
The parietal cells of the gastric mucous membrane are responsible for the secretion of HCl. They have specific membrane receptors which can be activated by gastrin and which have been defined as gastrin receptors or type-B cholecystokinin (CCK-B) receptors. Since it has been observed that the activation of the CCK-B receptors by gastrin leads to an increase in the cytosolic levels of calcium ions, a technique involving the measurement of the increase in intracellular calcium induced by gastrin in the presence and in the absence of the compounds of the invention was used as an index of the antigastrin activity of the compounds. Rabbit gastric mucous-membrane cells were prepared by conventional techniques with the use of collagenase and pronase as digestive enzymes. The cellular preparation obtained by the enzymatic digestion was composed of parietal cells, zymogen cells and mucous-membrane cells. […] The cells were then washed and resuspended in a saline solution buffered with HEPES containing, in mM: […] Each measurement was carried out on cells in suspension (0.8×10^6 /ml) at a thermostatically-controlled temperature of 37° C. and with constant magnetic stirring. The fluorescence was recorded with the use of a spectrofluorometer. The operative wavelengths were 340/380 nm for excitation and 505 nm for emission. […] Biol. Chem. 260 (1985), 3440]. […] The results thus obtained for some compounds of the invention are given in Table 4, which also gives an index derived from the ratio between the peripheral antigastrin activity just described and the displacement activity found in the test on binding to the guinea-pig cortex receptors described above.

Assay [2] concerns acid secretion induced by pentagastrin. The assay can be described thus: Acid secretion induced by pentagastrin in the anaesthetized rat. To be noted: for ED50: iv, 1 h, I.V. bolus, pentagastrin 30 mcg/kg/h, read-out: Activity (ID50), inhibition of the acid secretion induced by pentagastrin. The class given is in vivo. As for the experimental part:
The activity of the compounds of the invention against gastric secretion performed by means of a mechanism with an antigastrin effect, was examined in vivo in anaesthetized rats with the use of male animals weighing about 200 g. Gastric secretion was stimulated with pentagastrin and Lai's method [Gut 5, (1964), 327-341 ] was used, with slight modification.
After tracheotomy, the oesophagus and duodenum were cannulated. A tepid solution (37° C.) of 0.25 mM NaOH was perfused and was passed through the stomach by means of a peristaltic pump at a constant flow-rate of 1 ml/minute. After stabilization for 20 minutes, the stimulant, dissolved in a physiological solution, was perfused for 120 minutes at a dose of 30 mcg/kg/h, in a volume of 0.95 ml/hour. After perfusion for 60 minutes (the basal stimulation), the product under test was administered intravenously (I.V.) as a bolus and perfusion of the stimulant was continued for a further 60 minutes. The acid secretion was recorded continuously as a function of time.
The activity of the product was evaluated as the percentage reduction of secreted acidity after the administration of the product, in comparison with the basal acidity measured during the first 60 minutes of collection in the presence of pentagastrin alone.
The antagonistic compounds tested were administered in various doses so that an ID50, that is, the dose (in mg/kg I.V.) which could inhibit the effect of pentagastrin by 50%, could be calculated.

A further assay has as its target T3, CCK-A (Cavia porcellus, UniProt Q63931).
T3 construct: A longitudinal strip of guinea-pig gall-bladder was put in a bath for isolated organs; from tissue; host or cells: guinea-pig gall bladder longitudinal strip
T3 sequence (Q63931 1-430): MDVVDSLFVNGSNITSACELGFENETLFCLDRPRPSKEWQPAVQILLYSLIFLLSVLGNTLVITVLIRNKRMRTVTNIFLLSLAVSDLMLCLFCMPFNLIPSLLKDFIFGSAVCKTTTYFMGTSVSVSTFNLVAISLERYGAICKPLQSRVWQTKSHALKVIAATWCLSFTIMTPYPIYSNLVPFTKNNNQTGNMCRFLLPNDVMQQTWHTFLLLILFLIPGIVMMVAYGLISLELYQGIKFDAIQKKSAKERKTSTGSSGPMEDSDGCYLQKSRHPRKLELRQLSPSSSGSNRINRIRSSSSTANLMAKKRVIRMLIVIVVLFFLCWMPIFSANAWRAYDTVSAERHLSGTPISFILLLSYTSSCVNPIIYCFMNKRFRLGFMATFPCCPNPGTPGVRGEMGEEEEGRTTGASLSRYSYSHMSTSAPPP
The assay can be described thus: Anti-CCK-A activity on guinea-pig gall bladder stimulated in vitro by CCK-8. As for the experimental part: The experimental model used was guinea-pig gall bladder stimulated in vitro by CCK-8, with the use of lorglumide as the reference standard. A longitudinal strip of guinea-pig gall-bladder was put in a bath for isolated organs in the presence of Krebs buffer at a temperature of 32° C., with continuous oxygenation with an oxygen-CO2 mixture (95-[…]). The isometric contractions were detected by means of a force transducer and recorded.

pIC50: −log10 of the molar value. “And” between values parts separate entries of the source, which are not always exact repeats. Identical values can stand only once.

Take `CN(C(=O)CC[C@@H](NC(=O)c1cc(Cl)cc(Cl)c1)C(=O)N1CCC2(CCCC2)CC1)[C@H](Cc1ccccc1)C(=O)O` [Compound 12]: on central CCK-B receptor, the “inhibition of the binding of [N-methyl-N-leucine]CCK-8, result in words” value is reported as “potent inhibitors” and the pIC50 (usually the IC50 on a negative log10 scale, so that one unit is a factor of ten) is 7.00. Moreover, in assay [1], the “Ratio IC50 Binding cortex / IC50 (gastric mucous cells)” value (“Ratio IC50 Binding cortex / IC50” below) is reported as 1.7 and the “IC50, inhibition of the increase of cytosolic calcium” value came to 60 nM. For the same compound, the ED50 in assay [2] is 13.6 mg/kg and 24.2 µmol/kg.
At central CCK-B receptor, `O=C(O)C[C@H](Cc1ccccc1)NC(=O)CC[C@@H](NC(=O)c1cc(Cl)cc(Cl)c1)C(=O)N1CCC2(CCCC2)CC1` [Compound 14] showed a negative logarithm of the IC50 (pIC50) of 6.47. In assay [1], the “Ratio IC50 Binding cortex / IC50” value came out at 17.0 and the “IC50, inhibition of the increase of cytosolic calcium” value was 20 nM. Moreover, the ED50 in assay [2] is 9.7 mg/kg and 16.1 µmol/kg. The “antigastrin activity relative to the diastereoisomer at the carbon atom (**)” value in assay [2] (pentagastrin-induced acid secretion) was “about 1.5 times”.
As for `O=C(CC[C@@H](NC(=O)c1cc(Cl)cc(Cl)c1)C(=O)N1CCC2(CCCC2)CC1)N[C@H](Cc1ccccn1)C(=O)O` [Compound 27], at central CCK-B receptor, the negative-log IC50 (pIC50) was 6.82. Besides, in assay [1], the “Ratio IC50 Binding cortex / IC50” value is 0.6 and the “IC50, inhibition of the increase of cytosolic calcium” value was found to be 230 nM. In addition, the “CCK-B-antagonistic activity IC50 (II)” value in assay [1] (data taken from Table 4 (rabbit gastric mucous cells), reprinted in Table 6) came to 230 nM. For the same compound, at CCK-A (gall bladder IC50 over gastric mucous cells IC50), the “Ratio I/II (CCK-A IC50 / CCK-B IC50)” value was 14.8. The negative-log IC50 (pIC50) on CCK-A (guinea-pig gall bladder in vitro, CCK-8 10 ng/ml, read-out: CCK-A-antagonistic activity IC50 (I)) was 5.47.
In turn, `CN(Cc1ccccc1)C(=O)[C@@H](CCC(=O)O)NC(=O)CC[C@@H](NC(=O)c1cc(Cl)cc(Cl)c1)C(=O)N1CCC2(CCCC2)CC1` [Compound 38] gave a pIC50 at central CCK-B receptor of 6.74. Moreover, in assay [1], the “Ratio IC50 Binding cortex / IC50” value is given as 6.0 and the “IC50, inhibition of the increase of cytosolic calcium” value was 30 nM. Moreover, the ED50 in assay [2] was 7 mg/kg and 10.4 µmol/kg.
`O=C(N[C@H](CCC(=O)N1CCCC(C(=O)O)C1)C(=O)N1CCC2(CCCC2)CC1)c1cc(Cl)cc(Cl)c1` (stereo partly drawn) [Compound 58, (R)-1-(piperidine-3-carboxy)-1-oxo-5-(8-azaspiro[4.5]decan-8-yl)-4-(3,5-dichloro-benzoylamino)-5-oxopentanoic acid] gave a pIC50 at central CCK-B receptor of 6.19. Moreover, in assay [1], the “Ratio IC50 Binding cortex / IC50” value is reported as 1.9 and the “IC50, inhibition of the increase of cytosolic calcium” value was 330 nM. In assay [2], the ED50 is 10.1 mg/kg and 18.3 µmol/kg.
